{"source": "patent US10426757B2", "about": "“Compositions and methods for promoting intestinal stem cell and/or non-stem progenitor cell function” (Whitehead Institute for Biomedical Research, priority 2014, dated 2019)", "test_system": "control diet-derived organoids", "assay": "Ex vivo exposure of crypts and organoids to palmitic acid", "type": "cell-based, mouse", "description": "To examine whether PA, like a HFD, augmented the numbers of ISCs per primary organoid, we assayed the self-renewal capacity of the primary organoids in secondary cultures and assessed how PA-treatment influenced the frequency of ISCs.\nIsolated crypts were counted and embedded in Matrigel™ (Corning 356231 growth factor reduced) at 5-10 crypts per μl and cultured in a modified form of medium as described previously.^14 Briefly, Advanced DMEM (Gibco) was supplemented by EGF 40 ng ml^−1 (R&D), Noggin 200 ng ml^−1 (Peprotech), R-spondin […](R&D or Sino Biological), N-acetyl-L-cysteine 1 μM (Sigma-Aldrich), N2 1X (Life Technologies), B27 1X (Life Technologies), Chiron 10 μM (Stemgent), Y-27632 dihydrochloride monohydrate 20 ng ml^−1 (Sigma-Aldrich). 25 μL drops of Matrigel™ with crypts were plated onto a flat bottom 48-well plate (Corning 3548) and allowed to solidify for 20-30 minutes in a 37° C. incubator. Three hundred microliters of crypt culture medium was then overlaid onto the Matrigel™, changed every three days, and maintained at 37° C. in fully humidified chambers containing 5% CO2. Clonogenicity (colony-forming efficiency) was calculated by plating 50-300 crypts and assessing organoid formation 3-7 days or as specified after initiation of cultures.\nIsolated ISCs or progenitor cells were centrifuged for 5 minutes at 250 g, re-suspended in the appropriate volume of crypt culture medium (500-1,000 cells μl^−1), then seeded onto 25-30 μl Matrigel™ (Corning 356231 growth factor reduced) containing 1 μM jagged (Ana-Spec) in a flat bottom 48-well plate (Corning 3548). Alternatively, ISCs and Paneth cells were mixed after sorting in a 1:1 ratio, centrifuged, and then seeded onto Matrigel™. The Matrigel™ and cells were allowed to solidify before adding 300 μl of crypt culture medium. The crypt media was changed every second or third day. Organoid bodies were quantified on days 3, 7 and 10 of culture, unless otherwise specified. With respect to the study results presented in FIGS. 14-16, organoid bodies were quantified on day 3-4. […]", "note": "“Also recorded” adds a separate entry of the source.", "data": [{"smiles": "CCCCCCCCCCCCCCCC(=O)O", "note": "[PA, palmitic acid]", "values": [{"measurement": "primary organoid formation (clonogenic potential of crypts)", "setting": "30 μM PA", "result": "did not change; also recorded: no effect"}, {"measurement": "secondary organoid-forming activity", "setting": "30 μM PA, four weeks", "result": "more than twofold increase; also recorded: more secondary organoid-forming activity"}, {"measurement": "frequency of Lgr5-GFP^hi ISCs in organoids", "setting": "four-week PA treatment", "result": "twofold increase; also recorded: increased the frequency"}]}]}
